# Experimental data published in US8197860B2, “Method for enhancing nutrient absorption with astragalosides” (Nuliv Holding Inc., priority 2005, dated 2012).
# Tests used:
# Format in all cases: cell-based, human
# [1] = test system: Caco2 cells; experiment: Glucose uptake assay; set-up: key to * (regulatory effect on glucose uptake): ↑: the arrows that point up represent the enhancing effect on the glucose uptake; details: for Regulatory effects on the glucose uptake of the Caco2 cells: Table 2 summary; for Uptake rate (glucose): 48 hours, 25 mM glucose
# Experimental: (§1) To evaluate the effect of the isolated astragaloside compound on the uptake of nutrient substances across the intestinal lumen, Caco-2 cells were grown on permeable filter as an experimental model. Caco2 cells originate from human colonic adenocarcinoma and spontaneously differentiate into an enterocyte-like phenotype after two weeks. The Caco-2 cell line, derived from a human colorectal carcinoma, has been used as an in vitro model system for studying drug absorption in gastrointestinal tract. These cells form monolayers with well-developed tight-junctions, and have been evaluated in details as an in vitro model to study both transcellular transport of nutrients and drugs in intestinal lumen.
# (§2) Caco-2 cells were obtained from the ATCC (American Type Culture Collection). The cells were maintained in Dulbecco's modified Eagle medium (DMEM) containing 4.5 g/L glucose and 25 mM Hepes, supplemented with 10% fetal calf serum, 100 U/mL penicillin G and […]. The medium was changed every second day. The cells were routinely checked for Mycoplasma in monthly intervals. Caco-2 cells were cultured on semi-permeable membranes to differentiate into a highly functionalized epithelial barrier with remarkable morphological and biochemical similarity to the small intestinal columnar epithelium. The Caco-2 cell monolayers could therefore be used to study the membrane transport properties of many compounds. To trypsinize the cells, the culture dish was washed once with phosphate-buffered saline (PBS) followed by adding trypsine-EDTA for 10 minutes. The trypsinized cells were separated and filtered into single cells using a 35-μm strainer cap (Falcon 2235) before being seeded for further experiments.
# (§3) Caco-2 cells (5×10^4) were seeded in a 48-well plate and maintained in culture medium (DMEM with 10% FBS, 1% nonessential amino acids, L-glutamine, penicillin G (100 U/mL), streptomycin (10 μg/mL), and amphotericin B (2.5 μg/mL) in a 37° C. incubator for 10 days for the cells to differentiate. The culture medium was changed once every two days. The cells were then washed with PBS before replenishing with the culture medium containing 5% FBS and various astragalosides at the indicated concentrations (0.01, 0.1 and 1 μM) for 48 hours. The Caco2 cells were washed out of remaining glucose with PBS and replaced in the glucose buffer (80 mM NaCl, 100 mM mannitol, 20 mM Tris-HCl, pH 7.4, 3 mM K2HPO4, 1 mM CaCl2, 1 mg/mL BSA) for 1 hour. Glucose uptake was initiated by replacing the glucose buffer with 0.2 ml of glucose buffer containing 2 μCi/mL of ^14C-glucose and unlabeled cold glucose to give a final glucose concentration of 25 mM. Glucose uptake was stopped by removing the glucose buffer and washing with PBS at designated time intervals. The cells were lysed in 0.2 mL of 0.2 N NaOH, and 20 μL of the cell lysate were transferred to the filter-bottomed UniFilter plates (Perkin-Elmer, Wellesley, Mass., USA) and dried in a vacuum oven at 37° C. The bottom of the UniFilter plate was sealed and 25 μL of the counting solution were added into each well. Adhesive plate sealers were used in place of the lids and radioactivity of each sample was counted using the microplate liquid scintillation counter (TopCount, Packard NXT, Packard BioScience Company, Meriden, Conn., USA). The amount of glucose accumulated in the cells was calculated and normalized to protein concentration, and uptake rate was expressed as nanomoles of glucose per minutes per milligram of cell protein (nmol/min/mg). Protein concentration was determined by a standard Bicinchoninic acid (BCA) protein assay. Nonspecific glucose uptake was measured by adding 2 μCi of L-[^14C]-glucose and subtracting from each determination to obtain specific glucose uptake.
# [2] = test system: Caco-2 cell monolayer; experiment: Arginine absorption assay (transport across Caco-2 cell monolayer); set-up: key to * (regulatory effect on arginine transport): ↑: the arrows that point up represent the enhancing effect on the arginine transport; details: for Regulatory effects on the arginine transport across the Caco2 cell monolayer: Table 3 summary; for Transport rate (arginine): 10 mM L-arginine apical; for Arginine transport rate: concentration from 0.01 μM to 1 μM
# Experimental: as §1, §2
# (§4) In measuring transport of arginine across the Caco-2 cell monolayer, both sides of the transwells were washed with arginine incubation buffer consisting of: 137 mM NaCl, 10 mM Hepes, 0.3 mM NaH2PO4, 0.3 mM K2HPO4, 5.4 mM KCl, 2.8 mM CaCl2, 1 mM MgSO4, 10 mM glucose, adjusted to pH 7.4. Then, the cell layer was preincubated in the incubation buffer at 37° C. for 1 h. The volume of incubation buffer was 0.2 mL and 0.9 mL in the apical and basolateral chambers, respectively. The cells were replaced with fresh incubation medium in both chambers prior to the transport experiment. The transport experiment was initiated by replacing the incubation solution on the apical side with solution containing 10 mM of L-arginine in which 0.125 μCi/mL of L-[^3H]-arginine was included. At designated time intervals, 10 μL-solution samples were removed from the basolateral side and radioactivity of each sample was counted using a microplate liquid scintillation counter (TopCount, Packard NXT). During the experiment, when a 10 μL-solution sample was removed from the basolateral side every time, 10 μL buffer was supplemented to keep the volume constant. The uptake of [^3H]-mannitol was used to correct for nonspecific transport of molecules across the monolayer membrane. Results were expressed as the nanomoles of arginine transport across the Caco-2 cell monolayers with respect to time in minutes (nmol/min).
# [3] = test system: Caco2 cells; experiment: Folate uptake assay; set-up: key to * (regulatory effect on folate uptake): ↑: the arrows that point up represent the enhancing effect on folate uptake; details: compound 0.1 μM; for Uptake rate (folate): 2 days, 5 μM folate, pH 6.0
# Experimental: as §1, §2, §3
# The Caco2 cells were subjected to folate uptake test in a manner similar to that described in the glucose uptake assay in Example 1 above. […]
# [4] = test system: Caco-2 cell monolayer; experiment: Tryptophan absorption assay (transport across Caco-2 cell monolayer); set-up: key to * (regulatory effect on tryptophan transport): ↑: the arrows that point up represent the enhancing effect on the tryptophan transport; details: for Regulatory effects on the tryptophan transport across the Caco2 cell monolayer: Table 4 summary; for Tryptophan transport rate: concentration from 0.01 μM to 1 mM
# Experimental: as §1, §2, §4
# The experimental procedures similar to those in Example 2 were used for measuring the uptake of tryptophan molecules across the Caco-2 membrane, except using a tryptophan incubation buffer consisting of 137 mM choline chloride, 10 mM Hepes, 0.6 mM KH2PO4, 5.4 mM KCl, 2.8 mM CaCl2, 1 mM MgSO4, and 10 mM glucose, and having its pH adjusted to 7.4. Results were expressed as the nanomoles of tryptophan transport across the Caco-2 cell monolayers with respect to time in minutes (nmol/min).
SMILES,Regulatory effects on the glucose uptake of the Caco2 cells [1],* (regulatory effect on glucose uptake) ([1]; compound 0.01 μM),"Percentage (glucose uptake, control = 100) ([1]; compound 0.01 μM) [%]",Uptake rate (glucose) ([1]; compound 0.01 μM) [nmol/mg/min],* (regulatory effect on glucose uptake) ([1]; compound 0.1 μM),"Percentage (glucose uptake, control = 100) ([1]; compound 0.1 μM) [%]",Uptake rate (glucose) ([1]; compound 0.1 μM) [nmol/mg/min],* (regulatory effect on glucose uptake) ([1]; compound 1 μM),"Percentage (glucose uptake, control = 100) ([1]; compound 1 μM) [%]",Uptake rate (glucose) ([1]; compound 1 μM) [nmol/mg/min],Regulatory effects on the arginine transport across the Caco2 cell monolayer [2],* (regulatory effect on arginine transport) ([2]; compound 0.01 μM),"Percentage (arginine transport, control = 100) ([2]; compound 0.01 μM) [%]",Transport rate (arginine) ([2]; compound 0.01 μM) [nmol/min],* (regulatory effect on arginine transport) ([2]; compound 0.1 μM),"Percentage (arginine transport, control = 100) ([2]; compound 0.1 μM) [%]",Transport rate (arginine) ([2]; compound 0.1 μM) [nmol/min],* (regulatory effect on arginine transport) ([2]; compound 1 μM),"Percentage (arginine transport, control = 100) ([2]; compound 1 μM) [%]",Transport rate (arginine) ([2]; compound 1 μM) [nmol/min],further results
"CC(C)(O)[C@@H]1CC[C@](C)([C@H]2[C@@H](O)C[C@@]3(C)[C@@H]4C[C@H](O[C@@H]5O[C@H](CO)[C@@H](O)[C@H](O)[C@H]5O)[C@H]5C(C)(C)[C@@H](O[C@@H]6OC[C@@H](O)[C@H](O)[C@H]6O[C@@H]6O[C@H](CO)[C@@H](O)[C@H](O)[C@H]6O)CC[C@@]56C[C@@]46CC[C@]23C)O1 [AS6, astragaloside VI]",had regulatory effects on the glucose uptake,↑,119.84,7.6360 ± 1.7330,↑,109.97,7.0070 ± 1.9470,↑,122.49,7.8050 ± 1.1830,had regulatory effects on the arginine transport,↑,130.35,13.9283 ± 1.7330,↑,140.36,14.9986 ± 1.3200,↑,127.22,13.5942 ± 1.2760,"Arginine transport rate [2]: increased; * (regulatory effect on folate uptake) [3]: ↑; Percentage (folate uptake vs own control) [3]: 140.37%; Uptake rate (folate) [3]: 84.560 ± 4.7200 pmol/mg/min; Regulatory effects on the tryptophan transport across the Caco2 cell monolayer [4]: had regulatory effects on the tryptophan transport; * (regulatory effect on tryptophan transport) ([4]; compound 0.01 μM): ↑; Percentage (tryptophan transport, control = 100) ([4]; compound 0.01 μM): 173.45%; Transport rate (tryptophan) ([4]; compound 0.01 μM): 15.510 ± 0.3688 nmol/min; * (regulatory effect on tryptophan transport) ([4]; compound 0.1 μM): ↑; Percentage (tryptophan transport, control = 100) ([4]; compound 0.1 μM): 151.87%; Transport rate (tryptophan) ([4]; compound 0.1 μM): 13.850 ± 0.6567 nmol/min; * (regulatory effect on tryptophan transport) ([4]; compound 1 μM): ↑; Percentage (tryptophan transport, control = 100) ([4]; compound 1 μM): 173.23%; Transport rate (tryptophan) ([4]; compound 1 μM): 15.490 ± 0.2161 nmol/min; Tryptophan transport rate [4]: increased"
"CC(C)(O)C1CC[C@](C)(C2[C@@H](O)C[C@@]3(C)C4C[C@H](OC5OC(CO)C(O)C(O)C5O)C5C(C)(C)[C@@H](O)CCC56CC46CC[C@]23C)O1 (stereo partly drawn) [AA, cycloastragenol 6-O-β-D-gluco-pyranose]",had regulatory effects on the glucose uptake,↑,179.69,11.450 ± 3.2760,↑,146.67,9.3460 ± 2.3210,↑,145.68,9.2830 ± 2.1150,had regulatory effects on the arginine transport,↑,199.66,21.3347 ± 1.7800,↑,170.48,18.2169 ± 1.8700,↑,162.06,17.3164 ± 1.6150,"Arginine transport rate [2]: increased; * (regulatory effect on folate uptake) [3]: ↑; Percentage (folate uptake vs own control) [3]: 158.52%; Uptake rate (folate) [3]: 84.030 ± 4.9410 pmol/mg/min; Regulatory effects on the tryptophan transport across the Caco2 cell monolayer [4]: had regulatory effects on the tryptophan transport; * (regulatory effect on tryptophan transport) ([4]; compound 0.01 μM): ↑; Percentage (tryptophan transport, control = 100) ([4]; compound 0.01 μM): 133.08%; Transport rate (tryptophan) ([4]; compound 0.01 μM): 11.900 ± 0.6231 nmol/min; * (regulatory effect on tryptophan transport) ([4]; compound 0.1 μM): ↑; Percentage (tryptophan transport, control = 100) ([4]; compound 0.1 μM): 156.56%; Transport rate (tryptophan) ([4]; compound 0.1 μM): 14.000 ± 0.6445 nmol/min; * (regulatory effect on tryptophan transport) ([4]; compound 1 μM): ↑; Percentage (tryptophan transport, control = 100) ([4]; compound 1 μM): 135.32%; Transport rate (tryptophan) ([4]; compound 1 μM): 12.100 ± 0.5197 nmol/min; Tryptophan transport rate [4]: increased"
